Calls of active or inactive are those of the source.
How the values were obtained:
Nonstructural protein 1 = Nonstructural protein 1 (Influenza A virus, UniProt Q194T2); format: functional, Influenza A virus (A/California/07/2009(H1N1))
[1] = biological target: Glutathione-S-transferase (Schistosoma japonicum, UniProt Q26513); assay: biotin-GST/anti-GST TR-FRET signal inhibitors, dose response, artefact control for Vif-APOBEC3G degradation inhibitor project, biochemical (AID 1117362); format: functional
[2] = enhancers of respiration in Yfh1-depleted yeast, dose response, Friedreich's ataxia, plus single-dose screen (AID 1465); format: functional;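 also: yeast depleted of Yfh1p frataxin homolog grown on glycerol needing respiration; WST-1 tetrazolium dye reduction as measure of cellular dehydrogenase metabolic activity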
[3] = growth suppression of PTEN-null colon cells, dose response, cell-based, HCT116 PTEN knockout (AID 1047); format: functional;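 also: HCT116 colon tumor cells with PTEN knocked out; cells exposed to compound for 60 hours before readout; potency for loss of cell viability measured by luminescence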
[4] = growth suppression of beta-catenin-knockout colon cells, dose response, cell-based, HCT116, human colon tumor (AID 1045); format: functional;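 also: HCT116 colon tumor cells with beta catenin knocked out; cells exposed to compound for 60 hours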
[5] = HeLa cell cytotoxicity, dose response, cytotoxicity control for MgcRacGAP inhibitor project (AID 624300); format: functional
[6] = THP-1 cell cytotoxicity, dose response, cytotoxicity control for Vif-APOBEC3G degradation inhibitor project, THP-1 cells (AID 1117359); format: functional; settings: Human immunodeficiency virus 1, THP-1
[7] = biological target: T1, Rac GTPase-activating protein 1 (Homo sapiens, UniProt Q9H0H5); assay: MgcRacGAP GTPase-activating activity inhibitors, confirmation, biochemical, ADP Hunter fluorescence, primary and confirmatory (AID 624330); format: functional
T1 sequence (Q9H0H5 whole entry): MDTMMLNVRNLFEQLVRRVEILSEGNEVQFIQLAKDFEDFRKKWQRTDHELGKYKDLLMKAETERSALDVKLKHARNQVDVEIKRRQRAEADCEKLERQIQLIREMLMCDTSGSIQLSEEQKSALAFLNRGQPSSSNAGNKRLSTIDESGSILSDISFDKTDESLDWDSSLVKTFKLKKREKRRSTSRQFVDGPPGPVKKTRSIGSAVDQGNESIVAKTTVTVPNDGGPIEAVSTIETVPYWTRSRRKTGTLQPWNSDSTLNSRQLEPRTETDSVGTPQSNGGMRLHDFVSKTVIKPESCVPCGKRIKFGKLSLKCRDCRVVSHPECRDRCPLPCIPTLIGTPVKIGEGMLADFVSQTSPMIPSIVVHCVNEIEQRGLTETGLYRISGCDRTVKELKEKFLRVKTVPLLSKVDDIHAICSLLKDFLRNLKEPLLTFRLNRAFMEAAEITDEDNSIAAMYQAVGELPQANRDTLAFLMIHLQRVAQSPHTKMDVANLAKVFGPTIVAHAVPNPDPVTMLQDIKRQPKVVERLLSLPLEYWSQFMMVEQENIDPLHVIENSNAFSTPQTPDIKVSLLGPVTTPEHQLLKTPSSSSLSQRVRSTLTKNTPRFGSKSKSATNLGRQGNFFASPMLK

[8] = biological target: RNA-editing ligase 1, mitochondrial (Trypanosoma brucei brucei, UniProt P86926); assay: TbREL1 ligase inhibitors, dose response, biochemical, fluorescence, Trypanosoma brucei (AID 1117295); format: functional
[9] = P. falciparum ATP4 D1247Y mutant growth inhibitors, dose response, NITD609-resistant line, SYBR Green, dry powder (AID 1159571); format: functional, cell-based;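 also: parasites synchronized at ring stage by sorbitol before testing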
[10] = HepG2 cell cytotoxicity, dose response, cytotoxicity control, cherry-picked samples (AID 1159577); format: functional, cell-based
[11] = Plasmodium falciparum Dd2 Sybr green parasite growth Measured in Cell-Based and Microorganism Combination System Using Plate Reader - 2153-01_Inhibitor_Dose_DryPowder_Activity_Set3.; format: functional
[12] = P. falciparum 3D7-ScDHODH growth inhibitors, dose response, SYBR Green, dry powder samples (AID 1159570); format: functional, cell-based;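 also: parasite growth measured after 72 hours of compound exposure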
[13] = P. falciparum Dd2 growth inhibitors, dose response, SYBR Green, cherry-picked samples (AID 1159567); format: functional, cell-based
[14] = HepG2 cell cytotoxicity, dose response, cytotoxicity control, plate reader, dry powder samples (AID 1159569); format: functional, cell-based;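 also: inhibitor potency with signal falling toward the positive control level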
[15] = P. falciparum Dd2 growth inhibitors, dose response, SYBR Green, dry powder samples (AID 1159566); format: functional, cell-based;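 also: potency for growth inhibition with lower SYBR green DNA signal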

Nonstructural protein 1, sequence (Q194T2 whole entry): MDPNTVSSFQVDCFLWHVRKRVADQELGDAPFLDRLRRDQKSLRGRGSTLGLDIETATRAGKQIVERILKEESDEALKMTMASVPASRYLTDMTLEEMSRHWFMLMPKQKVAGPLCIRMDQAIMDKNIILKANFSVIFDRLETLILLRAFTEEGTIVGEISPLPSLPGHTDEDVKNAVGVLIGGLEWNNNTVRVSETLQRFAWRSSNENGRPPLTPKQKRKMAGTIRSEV
Glutathione-S-transferase, sequence (Q26513 whole entry): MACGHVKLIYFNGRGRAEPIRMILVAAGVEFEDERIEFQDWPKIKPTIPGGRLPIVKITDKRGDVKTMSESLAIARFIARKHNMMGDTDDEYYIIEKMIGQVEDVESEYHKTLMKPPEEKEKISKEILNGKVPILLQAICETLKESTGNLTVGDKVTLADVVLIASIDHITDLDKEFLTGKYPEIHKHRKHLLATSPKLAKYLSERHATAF
RNA-editing ligase 1, mitochondrial, sequence (P86926 whole entry): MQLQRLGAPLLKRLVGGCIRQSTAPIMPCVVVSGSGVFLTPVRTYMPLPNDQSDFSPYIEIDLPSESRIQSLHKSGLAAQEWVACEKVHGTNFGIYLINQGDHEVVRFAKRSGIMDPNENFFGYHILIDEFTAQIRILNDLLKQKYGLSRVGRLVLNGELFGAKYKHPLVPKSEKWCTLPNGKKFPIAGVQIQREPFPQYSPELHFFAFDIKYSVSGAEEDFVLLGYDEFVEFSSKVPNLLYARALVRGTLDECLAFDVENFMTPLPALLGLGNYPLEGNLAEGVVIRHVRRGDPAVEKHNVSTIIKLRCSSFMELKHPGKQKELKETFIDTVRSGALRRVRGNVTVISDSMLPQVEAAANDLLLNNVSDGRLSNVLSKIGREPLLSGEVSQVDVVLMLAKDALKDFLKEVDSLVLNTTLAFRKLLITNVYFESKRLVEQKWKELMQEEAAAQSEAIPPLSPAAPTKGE

Which results are given for `CN(C)c1ccc(/N=C/C=C2/N(C)c3ccccc3C2(C)C)cc1`?
IC50 (Nonstructural protein 1): 16.1 µM (active); IC50 [1]: 44.9 µM (active); EC50 [2]: > 100 µM (active); EC50 [3]: 39 µM (active); EC50 [4]: 39 µM (active); CC50 [5]: 100 µM (active); CC50 [6]: 17.5 µM (active); IC50 [7]: 20.6 µM (active)

For `COC(=O)C1=C(C)N(Cc2ccccc2C(F)(F)F)C(NCc2ccc(C(F)(F)F)cc2)=NC1c1ccccc1` (stereo unspecified), which IC50 [8] is on record?
Its IC50 is > 96.6 µM (inactive).

For `N#C[C@@H]1[C@H](c2ccc(C3=CCCCC3)cc2)[C@@H](CO)N1C(=O)NC1CCCC1`, which AC50 [9] is on record?
Its AC50 is 0.549 µM (active).

What about the AC50 [10] of the same compound?
The AC50 was > 39 µM (inactive).

And the AC50 [11]?
The AC50 was 0.399 µM (active).

What about the AC50 [12] of the same compound?
Its AC50 is 9.32 µM (active).

And the AC50 [13]?
The AC50 was 0.42 µM (active).

And the AC50 [14]?
The AC50 was 62.5 µM (active).

What about the AC50 [15] of the same compound?
Its AC50 is 0.409 µM (active).
